The values below come from patent publication US4199579A, “Carbamates of 2-haloergolines and 2-haloergolenes and process for the preparation thereof” (priority 1975, dated 1980).

Values after ≈ are worked out from the molar mass of the structure shown. Read-outs that look alike come from different tables or passages of the source.

Data set [1] concerns alpha-adrenergic receptors. The data set can be described thus: Antiadrenalic (antiadrenergic) activity in vitro (a): antagonism of the spasmogenic effect of adrenaline on the seminal vesicle. The format is cell-based, guinea pig. The text has this: More particularly the novel compounds display a vasodilatory activity on the peripheral circulatory system, an hypotensive activity and a spasmolytic effect on the gastrointestinal smooth muscles or a blocking activity towards the alpha-adrenergic receptors, both in "vitro" and in "vivo".
(a) J. Brugger, Helv. Physiol. Pharmacol. Acta 3, 117 (1945)
The product is antagonizing the spasmogenic effect of the adrenaline on the seminal vesicle of guinea pig at concentrations of between 0.1 and 10 pg/ml, as well as the vaso- constricting effect of the noradrenaline on the isolated and perfused caudal arteria of rat, at dosages of between 1 and 10 μg total. Furthermore it antagonizes the contracturing effect of adrenaline and noradrenaline on the "vas deferens" of guinea pig and rat, at concentrations of 0.1 to 10 ng/ml.

Data set [2] concerns alpha-adrenergic receptors. The data set can be described thus: Antiadrenalic activity in vivo (b): protection of rats from the lethal effect of adrenaline. Further details: species or system rat. Particulars: e.v.; Table 2.
Data set [3] concerns isolated ileum of guinea pig. Description: AntiBaCl2 activity in vitro (c): antagonism of the spasmogenic action of barium chloride on the isolated ileum. The data set is classed as cell-based. The following applies: Cavia porcellus, read-out: AntiBaCl2 (c) vitro EC50. As for the experimental part:
(c) Magnus, Pflugers Arch.Ges.Physiol. 102, 123 (1904)
The substance antagonizes the spasmogenic action of the barium chloride on the isolated ileum of guinea pig at dosages of between 1 and 5 μg/ml. […] On the isolated caudal arteria of rat, the compound II inhibits the vaso-constricting effect as caused by the perfusion with hyperpotassium Ringer's solution.

Another data set can be described thus: Acute toxicity in mice. The format is in vivo, mouse. The following applies: mouse, in vivo, mouse. The text has this:
|Toxicity LD50 mice orally

Data set [4] relates to asthma. Description: Anti-asthmatic activity (Goose, Immunology, 16, 749, 1969). The data set is classed as in vivo. The text has this: (§1) Coming now to examining the anti-asthmatic pharmaceutical compositions it has been ascertained that the compound described as D-2-bromo-6-methyl-8beta-(morpholinocarbolynoxymethyl)-ergoline, corresponding to the formula (4) is endowed with quite special [drawing 81] which render it particularly recommendable for the therapy of asthma. The compound of the formula (4) has the empirical formula C21 H26 N3 O3 Br and a mol. wt. of 448.38. It gives, with mineral and organic acid of nontoxic and pharmacologically acceptable nature, a number of salt. These are soluble in water as well as in the physiological solutions. Such are for example the maleate C25 H30 N3 O7 Br, m.p. 213° C.-216° C., or the methanesulfonate C22 H30 N3 O6 BrS, m.p. 265° C.-266° C. and can be prepared according to the conventional methods by treating the compound (4) with the equivalent quantities of the acid in an aqueous medium or in appropriate organic solvents and their mixtures such as the alcohols, the ethers, the lower aliphatic ketones and others, taken individually or in appropriate mixtures with each other as will be detailed in the Examples hereinafter. The pharmacological activity of the compound of formula (4) is unfolded in appropriate assays, carried out on the test animals and is especially conspicuous in the following test runs:
Goose, Sodium ED100 5 mg/kg intrav.

The next data set concerns Antidepressant activity. Description: Antidepressant activity. The data set is classed as in vivo.
Text: as §1, with “runs: […]” for “runs:”

In the next data set the test system is Myorelaxing activity. The data set can be described thus: Myorelaxing activity. The format is in vivo.
Text: as §1, with “runs: […]” for “runs:”

Another data set has as its system adrenergic activity. The data set can be described thus: Adrenergic activity of compound (4) in vitro. The format is cell-based. An excerpt: All of these activities of an accessorial nature which unfold themselves at dosages which are considerably higher than those which cause the antiasthmatic effect, should be regarded as favorable factors in the sense that they improve the pharmacological pattern of the product, so that a possible therapeutic use of the product for patients suffering from asthma, […], can be forecast.

The test system of data set [5] is asthma. Particulars: pharmacological aspect; cited from earlier work.

One may read the EC50 as the concentration needed to bring the measured effect to its halfway point. As to `CN1C[C@H](COC(=O)N2CCOCC2)C[C@@H]2c3cccc4[nH]c(Br)c(c34)C[C@H]21` [Example 16, D-2-bromo-6-methyl-8beta-(morpholinocarbonyloxymethyl)-ergoline], the “Antiadrenalic activity (a) vitro EC50” value in data set [1] turned out to be 0.0058 µg/mL. Besides, the “Antiadrenalic activity (b) vivo ED50” value in [2] amounted to 0.0419 mg/kg. Besides, in [3], the EC50 was 7.5 µg/mL (≈ 16.7 µM). The LD50 in the data set “Acute toxicity in mice” (iv, e.v., Table 2, read-out: DL50 e.v. in the mouse) was 20.5 mg/kg; in the data set “Acute toxicity in mice” (iv, mice, intrav., compound (4), read-out: Toxicity LD50 mice intrav.), 18 to 22 mg/kg; in “Acute toxicity in mice” (po, mice, orally, compound (4), read-out: Toxicity LD50 mice orally), 180 mg/kg. For the same compound, the selectivity ratio in “Acute toxicity in mice” (margin of safety, read-out: multiple of the therapeutic dosage beyond which toxic effects become apparent) was greater than 1000. The “dosage level of anti-asthmatic action compared with sodium chromoglycate” value in the data set on asthma [4] (by the oral route) is on record as “considerably lower dosage levels”. Further, the “activity against asthmatic seizures in words” value in the data set on asthma [4] (in vivo) was “both selectivity and a powerful activity against asthmatic seizures”. In addition, the ED100 in the data set with asthma [4] (po, orally) was 0.25 mg/kg; in the data set with Antidepressant activity (po, orally), 5 mg/kg; in the data set on Myorelaxing activity (route not given) it was 100 mg/kg. Also, the “antidepressant activity in words” value with Antidepressant activity (versus imipramine) was “considerable antidepressant activity which can be compared to that of imipramine”. Moreover, in the data set with Myorelaxing activity (versus phenobarbital), the “myorelaxing activity in words” value is recorded as “remarkable myorelaxing activity which is comparable to that of phenobarbital”. Besides, the “adrenergic activity in vitro” value in the data set with adrenergic activity is “powerful adrenergic activity”.
For `O=C(O)c1cc(=O)c2c(OCC(O)COc3cccc4oc(C(=O)O)cc(=O)c34)cccc2o1` [Sodium chromoglycate, reference compound], in the data set on asthma [4] (iv, intrav.), the ED100 is 5 mg/kg. In addition, the “route by which the anti-asthmatic activity is manifested” value in the data set with asthma [5] is “manifested only by the parentheral administration (intravenously), and, in man by inhalation of the dispersed powder”.
